Test results as given in patent US10246455B2, “Histone deacetylase inhibitors” (Taipei Medical University, priority 2014, dated 2019).
Read-outs that look alike come from different tables or passages of the source.

Experiments:
[1] = tested on: histone and α-tubulin acetylation in PC3 cells; assay: Western blot: acetylation in PC3 cells; type: cell-based, human; settings: concentration-dependent
Procedure: More specifically, cells in the logarithmic phase were initially seeded at a density of 1×10^6 in 100 mm^2 dishes. […] Briefly, cells were lysed with the cell lysis reagent CelLytic™ M (Sigma-Aldrich) containing 1 mM DTT, 1 mM PMSF and protease inhibitors for whole-cell lysate preparation. Equal amounts of lysate (on a protein basis) were then differentiated using the SDS-PAGE, blotted on PVDF membranes, conjugated with various specific primary antibodies, and then probed with appropriate secondary antibodies. The immunoreactive bands were detected using the ECL method and visualized on Kodak Bio-MAX MR film.
Proteins from cells were extracted and subjected to the western blotting analysis. β-Actin was used as an internal control. The deacetylase enzyme assay was based on a homogeneous fluorescence release assay. […] After fluorophore from the deacetylated substrates, fluorescent signal was detected.

[2] = tested on: HT-29 (colorectal carcinoma); assay: IC50 in human cancer cell lines (inhibiting HDAC): HT-29
[3] = tested on: PC3 prostate cancer cells; assay: Three dimensional cell growth inhibitory assay (cellular spheres, MTT, microscopy): PC3; type: cell-based, human; settings: for IC50: Homo sapiens
Procedure: (§1) For the three dimensional assay, cells in the logarithmic phase were cultured in 50% Matrigel-containing complete medium in 96-well plates at 37° C. with 5% CO2 for five days incubation, and treated with appropriate concentrations of test compounds for three generative times. Images of spheroids were taken under a microscope, and spheroid cell survival was determined by MTT assays.
(§2) The cells (in the 2D culture) and the cellular spheres (in the 3D culture) were treated with test compounds for 72 hours, and then subjected to the MTT colorimetric assay. Each value represents the mean of three independent experiments. Cellular spheres formed in semi-solid and drug effect on cellular spheres were examined using phase-contrast light microscopy.
More specifically, cellular spheres formed in semi-solid and drug effect on cellular spheres were examined using phase-contrast light microscopy. 3D structures of cells were analyzed using 4× magnification, 10× magnification, and 20× magnification.

[4] = tested on: KB cell line (oral carcinoma); assay: IC50 in human cancer cell lines (inhibiting HDAC): KB
[5] = tested on: PC3 prostate cancer cells; assay: Two dimensional cell growth inhibitory assay (MTT): PC3; settings: Homo sapiens
Procedure: (§3) For the two dimensional assay, cancel cells in the logarithmic phase were cultured in complete medium in 96-well plates at 37° C. with 5% CO2 for overnight incubation, and treated with various concentrations of test compounds for three generative times. Cells were then incubated with a serum free medium containing 3-(4,5-dimethylthiazol-2-yl)-2,5-diphenyltetrazolium bromide (MTT) at a final concentration of 0.5 mg/mM for four hours. MTT was converted to formazan by metabolically viable cells. Formazan was then solublized in 50% DMF solution containing 20% SDS at 37° C. overnight. Absorbance was measured at 570 nm using a spectramax M5 microplate reader (Molecular Devices, UK).

[6] = tested on: human PC3 prostate cancer cells xenograft; assay: In vivo antitumor activity assay, PC3 xenograft
From the text: The antitumor effect of the two test compounds were examined in mice xenografted with human PC3 prostate cancer cells or HCT116 colorectal cells.
Five million PC3 cells were subcutaneously inoculated into specific pathogen-free male athymic mice (strain BALB/cAnN.Cg-Foxn1nu/CrlNarl) from the National Laboratory Animal Center, Taiwan. Mice were subsequently fed under specific pathogen-free conditions and provided with sterile water and food. When the tumor volume reached 150 to 200 mm^3, mice were assigned to groups randomly and treated with vehicle control or Compound 7 or 5b at 25/50/100 mg/kg. The compound was administered once a day, 5 days/week for 2 weeks (n=6) by oral administration. Tumor volume and body weight change were measured twice a week. At the end of the experiments (day 25 after first dosing), animals were euthanized in a CO2-containing chamber, and the tumors were collected and fixed in formaldehyde. The terminal deoxynucleotidyl transferase-mediated dUTP nick end labeling assay (TUNEL) was conducted for apoptosis detection. Tumor tissue sections were analyzed using a FITC In Situ Cell death detection kit (Roche) and fluorescence microscopy. Tissue treated with DNase was used as the positive control. Green fluorescence labeled nucleus indicates the induction of DNA fragmentation.

[7] = tested on: LNCaP104-R1 prostate cancer cells; assay: Two dimensional cell growth inhibitory assay (MTT): LNCaP104-R1; settings: Homo sapiens, 72 h, read-out: MTT IC50 ± SD
Procedure: as §3

[8] = tested on: H460 (non-small-cell lung carcinoma); assay: IC50 in human cancer cell lines (inhibiting HDAC): H460
[9] = tested on: LNCaP104-S prostate cancer cells; assay: Two dimensional cell growth inhibitory assay (MTT): LNCaP104-S; settings: Homo sapiens, 72 h, read-out: MTT IC50 ± SD
Procedure: as §3

[10] = tested on: HONE-1 (nasopharyngeal carcinoma); assay: IC50 in human cancer cell lines (inhibiting HDAC): HONE-1
[11] = tested on: LNCaP104-S prostate cancer cells; assay: Three dimensional cell growth inhibitory assay (cellular spheres, MTT): LNCaP104-S; type: cell-based; settings: Homo sapiens; 3D cellular sphere culture, LNCaP104-S (androgen-dependent), 72 hours; read-out: MTT IC50 ± SD
Procedure: as §1, §2

[12] = tested on: Du145 prostate cancer cells; assay: Two dimensional cell growth inhibitory assay (MTT): Du145; settings: Homo sapiens, DU-145, 72 h, read-out: MTT IC50 ± SD
Procedure: as §3

PC3 (prostate carcinoma) = assay: IC50 in human cancer cell lines (inhibiting HDAC): PC3
[13] = tested on: androgen-independent PC3 prostate cancer cells; assay: Cell cycle analysis; type: cell-based, human; settings: for cell cycle arrest and apoptosis: androgen-independent PC3 prostate cancer cells
Procedure: More specifically, cells in the logarithmic phase were initially seeded at a density of 1×10^6 in 100 mm^2 dishes. After treatment with various concentrations of test compounds for the indicated times, cells were trypsinized, washed with PBS, and fixed in 70% ethanol. The fixed cells were then treated with 50 μg/mL RNase and stained with 50 μg/mL propidium iodide at room temperature for 20 minutes. The DNA content was determined by BD FACS Calibur flow cytometry system (BD Biosciences). For each analysis, 10,000 cells were counted, and the percentage of cells in each phase was calculated using ModFit LT software (Verity Software House, Inc.).

[14] = tested on: LNCaP104-R2 prostate cancer cells; assay: Two dimensional cell growth inhibitory assay (MTT): LNCaP104-R2; settings: Homo sapiens, 72 h, read-out: MTT IC50 ± SD
Procedure: as §3

[15] = tested on: LNCaP104-R1 prostate cancer cells; assay: Three dimensional cell growth inhibitory assay (cellular spheres, MTT): LNCaP104-R1; type: cell-based; settings: Homo sapiens; 3D cellular sphere culture, LNCaP104-R1 (androgen-independent), 72 hours; read-out: MTT IC50 ± SD
Procedure: as §1, §2

**Q.** `COc1ccc(S(=O)(=O)N2CCc3cc(/C=C/C(=O)NO)cnc32)cc1` [Compound 5b, (E)-N-hydroxy-3-(1-(4-methoxyphenylsulfonyl)-2,3-dihydro-1H-pyrrolo[2,3-b]pyridin-5-yl)acrylamide] was tested. Which “histone and α-tubulin acetylation” value [1] did it give?
**A.** induced histone and α-tubulin acetylation

**Q.** What about the IC50 ([2]; HT-29, read-out: IC50 ± SD against human cancer cell lines) of the same compound?
**A.** 85.4 ± 9.8 nM

**Q.** And the IC50 ([3]; 3D cellular sphere culture, PC3, 72 hours, read-out: MTT IC50 ± SD)?
**A.** 410 ± 60 nM

**Q.** And the IC50 ([3]; Table 6, cell line not given, read-out: IC50 value 3D Culture)?
**A.** 410 ± 60 nM

**Q.** And the IC50 ([4]; Homo sapiens, read-out: IC50 ± SD against human cancer cell lines, KB, oral carcinoma)?
**A.** 86.6 ± 17.1 nM

**Q.** And the IC50 ([5]; 72 h, read-out: MTT IC50 ± SD)?
**A.** 170 ± 40 nM

**Q.** What about the IC50 ([5]; read-out: IC50 value 2D Culture) of the same compound?
**A.** 170 ± 40 nM

**Q.** And the “inhibition of human PC3 xenograft growth” value ([6]; 50 mg/kg oral, day 29 after the first dosing)?
**A.** about 70%

**Q.** And the “inhibition of human PC3 xenograft growth” value ([6]; 100 mg/kg oral)?
**A.** completely inhibited

**Q.** And the tumor regression ([6]; PC3 xenograft, 100 mg/kg oral)?
**A.** achieved tumor regression from day 8 to day 29

**Q.** And the IC50 [7]?
**A.** 100 ± 40 nM

**Q.** And the IC50 ([8]; NCI-H460, read-out: IC50 ± SD against human cancer cell lines)?
**A.** 112 ± 9.5 nM

**Q.** And the IC50 [9]?
**A.** 150 ± 30 nM

**Q.** And the IC50 ([10]; HONE1, read-out: IC50 ± SD against human cancer cell lines)?
**A.** 447 ± 45.2 nM

**Q.** And the IC50 [11]?
**A.** 230 ± 30 nM

**Q.** And the IC50 [12]?
**A.** 90 ± 30 nM

**Q.** And the IC50 (PC3 (prostate carcinoma); read-out: IC50 ± SD against human cancer cell lines)?
**A.** 170 ± 40 nM

**Q.** What about the p21 up-regulation [13] of the same compound?
**A.** induced p21 up-regulation

**Q.** And the “cell cycle arrest and apoptosis” value [13]?
**A.** induced cell cycle arrest and apoptosis

**Q.** What about the IC50 [14] of the same compound?
**A.** 180 ± 70 nM

**Q.** And the IC50 [15]?
**A.** 150 to 625 nM

**Q.** Which results are given for `O=C(/C=C/c1cccc(S(=O)(=O)n2ccc3cccnc32)c1)NO` [Compound 7, (E)-3-(3-(1H-Pyrrolo[2,3-b]pyridin-1-ylsulfonyl)phenyl)-N-hydroxyacrylamide]?
**A.** histone and α-tubulin acetylation [1]: induced histone and α-tubulin acetylation; IC50 ([2]; HT-29, read-out: IC50, inhibiting HDAC in human cancer cell lines): 1240 ± 400 nM; effect on spheroid structure of PC3 tumors ([3]; 3D culture, phase-contrast light microscopy): disrupted the spheroid structure of PC3 tumors in a concentration-dependent manner; IC50 ([3]; read-out: 3D Culture): 6380 ± 160 nM; cytotoxic / anti-proliferative activity in 3D versus 2D culture ([3]; human prostate carcinoma cells, 2D and 3D culture): potent in both a 3D spheroid culture and a 2D culture; IC50 ([4]; read-out: IC50, inhibiting HDAC in human cancer cell lines, oral carcinoma): 760 ± 230 nM; IC50 ([5]; read-out: 2D Culture): 2990 ± 170 nM; inhibition of human PC3 xenograft growth ([6]; 25 mg/kg oral, day 25 after the first dosing): about 50%; inhibition of human PC3 xenograft growth ([6]; 50 mg/kg oral, day 25 after the first dosing): about 50%; body weight change ([6]; PC3 xenograft mice, 25 and 50 mg/kg oral): without causing much body weight change; IC50 [7]: 1150 ± 30 nM; IC50 ([8]; NCI-H460, read-out: IC50, inhibiting HDAC in human cancer cell lines): 570 ± 10 nM; IC50 [9]: 1980 ± 100 nM; IC50 ([10]; HONE1, read-out: IC50, inhibiting HDAC in human cancer cell lines): 1200 ± 310 nM; IC50 [11]: 3210 ± 150 nM; IC50 [12]: 1220 ± 50 nM; IC50 (PC3 (prostate carcinoma); read-out: IC50, inhibiting HDAC in human cancer cell lines): 1630 ± 410 nM; cell cycle arrest and apoptosis [13]: induced cell cycle arrest and apoptosis; IC50 [14]: 2090 ± 110 nM; IC50 [15]: 2450 ± 150 nM
